Measured values taken from patent US20220144853A1, “IMIDAZOLINE DERIVATIVES AS CXCR4 MODULATORS” (Université de Paris, priority 2019, published 2022).
Where a name gives a salt, the structure may show the parent alone.

Test system: not given
Assay: not given
Conditions: not given

| melting point | SMILES |
| --- | --- |
| 169 to 175 °C | CC1(C)CN=C2SC=C(CSC3=NCC(C)(C)N3)N2C1 (as salt: hydrochloride) [Example 34, 3-(((5,5-dimethyl-4,5-dihydro-1H-imidazol-2-yl)thio)methyl)-6,6-dimethyl-6,7-dihydro-5H-thiazolo[3,2-a]pyrimidine dihydrochloride] |
| > 250 °C | CC1(C)CN2C(CSC3=NCCCCN3)=CSC2=N1 (as salt: hydrochloride) [Example 12, 6,6-dimethyl-3-(((4,5,6,7-tetrahydro-1H-1,3-diazepin-2-yl)thio)methyl)-5,6-dihydroimidazo[2,1-b]thiazole dihydrochloride] |
| > 250 °C | CC1(C)CN=C(SCC2=CSC3=NC(C)(C)CN23)NC1 (as salt: hydrochloride) [Example 28, 3-(((5,5-dimethyl-1,4,5,6-tetrahydropyrimidin-2-yl)thio)methyl)-6,6-dimethyl-5,6-dihydroimidazo[2,1-b]thiazole dihydrochloride] |
| > 250 °C | C1=C(CSC2=NCCCN2)N2CCCN=C2S1 (as salt: hydrochloride) [Example 29, 3-(((1,4,5,6-tetrahydropyrimidin-2-yl)thio)methyl)-6,7-dihydro-5H-thiazolo[3,2-a]pyrimidine dihydrochloride] |
| 167 to 175 °C | CC1(C)CN2C(CSC3=N[C@H]4CCCC[C@@H]4N3)=CSC2=N1 (as salt: hydrochloride) [Example 4, 3-((((3aS,7aS)-3a,4,5,6,7,7a-hexahydro-1H-benzo[d]imidazol-2-yl)thio)methyl)-6,6-dimethyl-5,6-dihydroimidazo[2,1-b]thiazole dihydrochloride] |
| 185 to 205 °C | CC1(C)CN2C(CSC3=NC(C)(C)C(C)(C)N3)=CSC2=N1 (as salt: hydrochloride) [Example 16, 6,6-dimethyl-3-(((4,4,5,5-tetramethyl-4,5-dihydro-1H-imidazol-2-yl)thio)methyl)-5,6-dihydroimidazo[2,1-b]thiazole dihydrochloride] |
| 117 to 121 °C | C1=C(CSC2=NCC(Cc3ccccc3)N2)N2CC(Cc3ccccc3)N=C2S1 (stereo not shown) (as salt: hydrochloride) [Example 60, 6-benzyl-3-(((5-benzyl-4,5-dihydro-1H-imidazol-2-yl)thio)methyl)-5,6-dihydroimidazo[2,1-b]thiazole dihydrochloride] |
| 245 to 249 °C | CN1CCCN=C1SCC1=CSC2=NC(C)(C)CN12 (as salt: hydrochloride) [Example 57, 6,6-dimethyl-3-(((1-methyl-1,4,5,6-tetrahydropyrimidin-2-yl)thio)methyl)-5,6-dihydroimidazo[2,1-b]thiazole dihydrochloride] |
| 65 to 75 °C | CC1(C)CN2C(CSC3=N[C@@H]4CCCC[C@H]4N3)=CSC2=N1 (as salt: hydrochloride) [Example 3, 3-((((3aR,7aR)-3a,4,5,6,7a-hexahydro-1H-benzo[d]imidazol-2-yl)thio)methyl)-6,6-dimethyl-5,6-dihydroimidazo[2,1-b]thiazole dihydrochloride] |
| 150 to 154 °C | CCCCC1CN=C(SCC2=CSC3=NC(Cc4ccccc4)CN23)N1 (stereo not shown) (as salt: hydrochloride) [Example 51, 6-benzyl-3-(((5-butyl-4,5-dihydro-1H-imidazol-2-yl)thio)methyl)-5,6-dihydroinidazo[2,1-b]thiazole dihydrochloride] |
| > 250 °C | CC1(C)CN2C(CSC3=N[C@H]4COC[C@H]4N3)=CSC2=N1 (as salt: hydrochloride) [Example 25, (3aR,6aS)-2-(((6,6-dimethyl-5,6-dihydroinidazo[2,1-b]thiazol-3-yl)methyl)thio)-3a,4,6,6a-tetrahydro-1H-furo[3,4-d]imidazole dihydrochloride] |
| 244 to 247 °C | CC1(C)CN=C(SCC2=CSC3=NCCCCN23)N1 (as salt: hydrochloride) [Example 15, 3-(((5,5-dimethyl-4,5-dihydro-1H-imidazol-2-yl)thio)methyl)-5,6,7,8-tetrahydrothiazolo[3,2-a][1,3]diazepine dihydrochloride] |
| 210 to 215 °C | CC1(C)CN=C(SCC2=CSC3=N[C@H]4CCCC[C@H]4N23)N1 (racemic) (as salt: hydrochloride) [Example 10, cis-3-(((4,4-dimethyl-4,5-dihydro-1H-imidazol-2-yl)thio)methyl)-4a,5,6,7,8,8a-hexahydrobenzo[4,5]imidazo[2,1-b]thiazole dihydrochloride] |
| 128 to 132 °C | CN1CCN=C1SCC1=CSC2=NC(C)(C)CN12 (as salt: hydrochloride) [Example 11, 6,6-dimethyl-3-(((1-methyl-4,5-dihydro-1H-imidazol-2-yl)thio)methyl)-5,6-dihydroimidazo[2,1-b]thiazole dihydrochloride] |
| 245 to 249 °C | CC1(C)CN2C(CSC3=NCC4CCCCC4N3)=CSC2=N1 (stereo not shown) (as salt: hydrochloride) [Example 40, 6,6-dimethyl-3-(((1,4,4a,5,6,7,8,8a-octahydroquinazolin-2-yl)thio)methyl)-5,6-dihydroimidazo[2,1-b]thiazole dihydrochloride] |
| 140 to 144 °C | CC1(C)CN2C(CSC3=NCCN3)=CSC2=N1 (as salt: hydrochloride) [Example 8, 3-(((4,5-dihydro-1H-imidazol-2-yl)thio)methyl)-6,6-dimethyl-5,6-dihydroimidazo[2,1-b]thiazole dihydrochloride] |
| 190 to 198 °C | CC1(C)CN=C(SCC2=CSC3=NC4(CCCCC4)CN23)N1 (as salt: hydrochloride) [Example 42, 3′-(((5,5-dimethyl-4,5-dihydro-1H-imidazol-2-yl)thio)methyl)-5′H-spiro[cyclohexane-1,6′-imidazo[2,1-b]thiazole] dihydrochloride] |
| 204 to 207 °C | CN1CCN=C1SCC1=CSC2=NC3CCCCC3N12 (racemic) (as salt: hydrochloride) [Example 63, trans-3-(((1-methyl-4,5-dihydro-1H-imidazol-2-yl)thio)methyl)-4a,5,6,7,8,8a-hexahydrobenzo[4,5]imidazo[2,1-b]thiazole dihydrochloride] |
| 95 to 104 °C | CCCCC1CN=C(SCC2=CSC3=NC(C)(C)CN23)N1 (stereo not shown) (as salt: hydrochloride) [Example 13, 3-(((5-butyl-4,5-dihydro-1H-imidazol-2-yl)thio)methyl)-6,6-dimethyl-5,6-dihydroimidazo[2,1-b]thiazole dihydrochloride] |

Test system: IFN production by activated PBMCs
Assay: IFN production by R848-activated PBMCs from healthy donors, twINNE reporter cell line
Type: cell-based, human
Conditions: Homo sapiens, PBMC, means of two results over 2 healthy donors, R848 5 μg/mL, IT1t: mean over all experiments, read-out: IC50 of anti-inflammatory activity (IFN production)
Protocol: 2) The blood from healthy donors was also obtained from “Etablissement Français du Sang” (convention #19/EFS/029), Paris, France.
In vitro experiments were performed using human peripheral blood mononuclear cells (PBMCs) isolated by density centrifugation from peripheral blood leukocyte separation medium, lymphoprep (Stemcell Technologies).
PBMCs were cultured in RPMI 1640 (Sigma-Aldrich, MO, USA) containing 10% heat-inactivated fetal bovine serum (Sigma-Aldrich, MO, USA) at 37° C./5% CO2.
2) The PBMCs used herein were prepared as described in part A “immune cells preparation”, section 2) above. PBMCs were seeded at 4.10^6/mL. […] Cells were then stimulated with the TLR7/8 agonist resiquimod—R848 (Sigma-Aldrich, MO, USA) at 5 μg/mL.
2) To quantify the secretion of functional IFN, a biological assay based on a stable cell line where luciferase reporter gene is controlled by five Interferon-Stimulated Response Elements (twINNE cell line) was used. It is important to note that the twINNE cell line is the same as the above mentioned STING-37 cell line but with constitutively expressed nanoluciferase. First, supernatants of R848-stimulated PBMCs (see part B, section 2) above) were harvested after 24 h of stimulation and frozen at −20° C. for storage. Then, supernatants were dispensed in culture wells of a 96-well plate containing 35.103 twINNE cells per well in Dulbecco's Modified Eagle's Medium supplemented with 10% Foetal Bovine Serum, 100 U/mL Penicillin and 100 μg/mL Streptomycin (1% Pen-Strep) and 1 mM glutamine (Sigma-Aldrich, MO, USA) at 37° C./5% […]. After 24 h of culture, luciferase activity was determined by adding 60 μL of Bright-Go reagents (Promega, Wisconsin, USA) to culture wells and measuring bioluminescence with EnSpire Multimode Plate Reader (PerkinElmer, Massachusetts, USA). When stated, for IC50 calculation, dose-response curves fitted using the nonlin fit (variable slope) analysis in GraphPad Prism software (GraphPad Software, California, USA).

| SMILES | IC50 |
| --- | --- |
| CC1(C)CN2C(CSC3=NC(C)(C)C(C)(C)N3)=CSC2=N1 [Example 16, 6,6-dimethyl-3-(((4,4,5,5-tetramethyl-4,5-dihydro-1H-imidazol-2-yl)thio)methyl)-5,6-dihydroimidazo[2,1-b]thiazole dihydrochloride] | ≥ 31 µM |
| CC1(C)CN2C(CSC3=N[C@@H]4CCCC[C@@H]4N3)=CSC2=N1 [Example 5, 3-((((3R,7aS)-3a,4,5,6,7,7a-hexahydro-1H-benzo[d]imidazol-2-yl)thio)methyl)-6,6-dimethyl-5,6-dihydroimidazo[2,1-b]thiazole dihydrochloride] | 10 to 31 µM |
| C1=C(CSC2=N[C@@H]3CCCC[C@H]3N2)N2CCN=C2S1 [Example 44, 3-((((3aR,7aR)-3a,4,5,6,7,7a-hexahydro-1H-benzo[d]imidazol-2-yl)thio)methyl)-5,6-dihydroimidazo[2,1-b]thiazole dihydrochloride] | ≤ 10 µM |
